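Where inhibition never reached the appropriate level, the endpoint shown equals the highest concentration tested. Otherwise, values were interpolated linearly from a five-concentration, 48-hour dose response in 96-well plates. At the TGI there is no net growth.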
Tests used:
Assay in all cases: NCI anticancer screen, dose series, 48 h
786-0 renal = test system: 786-0 renal
A498 renal = test system: A498 renal
A549 NSCLC = test system: A549 NSCLC
ACHN renal = test system: ACHN renal
CAKI-1 renal = test system: CAKI-1 renal
CCRF-CEM leukemia = test system: CCRF-CEM leukemia
COLO 205 colon = test system: COLO 205 colon
DLD-1 colon = test system: DLD-1 colon
DMS 114 small cell lung = test system: DMS 114 small cell lung
DMS 273 small cell lung = test system: DMS 273 small cell lung
EKVX NSCLC = test system: EKVX NSCLC
HCC-2998 colon = test system: HCC-2998 colon
HCT-116 colon = test system: HCT-116 colon
HCT-15 colon = test system: HCT-15 colon
HL-60(TB) leukemia = test system: HL-60(TB) leukemia
HOP-18 NSCLC = test system: HOP-18 NSCLC
HOP-62 NSCLC = test system: HOP-62 NSCLC
HOP-92 NSCLC = test system: HOP-92 NSCLC
HT29 colon = test system: HT29 colon
IGROV1 ovarian = test system: IGROV1 ovarian
K-562 leukemia = test system: K-562 leukemia
KM12 colon = test system: KM12 colon
KM20L2 colon = test system: KM20L2 colon
LOX IMVI melanoma = test system: LOX IMVI melanoma
LXFL 529 NSCLC = test system: LXFL 529 NSCLC
M19-MEL melanoma = test system: M19-MEL melanoma
MALME-3M melanoma = test system: MALME-3M melanoma
MOLT-4 leukemia = test system: MOLT-4 leukemia
NCI-H226 lung = test system: NCI-H226 lung
NCI-H23 lung = test system: NCI-H23 lung
NCI-H460 lung = test system: NCI-H460 lung
NCI-H522 lung = test system: NCI-H522 lung
OVCAR-3 ovarian = test system: OVCAR-3 ovarian
OVCAR-4 ovarian = test system: OVCAR-4 ovarian
OVCAR-5 ovarian = test system: OVCAR-5 ovarian
OVCAR-8 ovarian = test system: OVCAR-8 ovarian
RPMI-8226 leukemia = test system: RPMI-8226 leukemia
RXF 393 renal = test system: RXF 393 renal
SF-268 CNS = test system: SF-268 CNS
SF-295 CNS = test system: SF-295 CNS
SF-539 CNS = test system: SF-539 CNS
SK-MEL-2 melanoma = test system: SK-MEL-2 melanoma
SK-MEL-28 melanoma = test system: SK-MEL-28 melanoma
SK-MEL-5 melanoma = test system: SK-MEL-5 melanoma
SK-OV-3 ovarian = test system: SK-OV-3 ovarian
SN12C renal = test system: SN12C renal
SNB-19 CNS = test system: SNB-19 CNS
SNB-75 CNS = test system: SNB-75 CNS
SNB-78 CNS = test system: SNB-78 CNS
SR leukemia = test system: SR leukemia
SW-620 colon = test system: SW-620 colon
TK-10 renal = test system: TK-10 renal
U251 CNS = test system: U251 CNS
UACC-257 melanoma = test system: UACC-257 melanoma
UACC-62 melanoma = test system: UACC-62 melanoma
UO-31 renal = test system: UO-31 renal
M14 melanoma = test system: M14 melanoma

O=C(CCN1CCC(CCO)CC1)Nc1ccc2c(c1)C(=O)c1ccc(NC(=O)CCN3CCC(CCO)CC3)cc1C2=O
TGI (786-0 renal): 27.2 µM
TGI (A498 renal): 92.8 µM
TGI (A549 NSCLC): > 100 µM
TGI (ACHN renal): > 100 µM
TGI (CAKI-1 renal): > 100 µM
TGI (CCRF-CEM leukemia): 42.5 µM
TGI (COLO 205 colon): 64.6 µM
TGI (DLD-1 colon): 22.2 µM
TGI (DMS 114 small cell lung): 21.7 µM
TGI (DMS 273 small cell lung): 19.8 µM
TGI (EKVX NSCLC): > 100 µM
TGI (HCC-2998 colon): 88.7 µM
TGI (HCT-116 colon): 31.2 µM
TGI (HCT-15 colon): > 100 µM
TGI (HL-60(TB) leukemia): > 100 µM
TGI (HOP-18 NSCLC): 80.1 µM
TGI (HOP-62 NSCLC): 37.5 µM
TGI (HOP-92 NSCLC): > 100 µM
TGI (HT29 colon): > 100 µM
TGI (IGROV1 ovarian): > 100 µM
TGI (K-562 leukemia): 42.6 µM
TGI (KM12 colon): 10.5 µM
TGI (KM20L2 colon): 77.8 µM
TGI (LOX IMVI melanoma): 64 µM
TGI (LXFL 529 NSCLC): 19.8 µM
TGI (M19-MEL melanoma): > 100 µM
TGI (MALME-3M melanoma): 28.6 µM
TGI (MOLT-4 leukemia): 24.5 µM
TGI (NCI-H226 lung): 76.5 µM
TGI (NCI-H23 lung): > 100 µM
TGI (NCI-H460 lung): 15.5 µM
TGI (NCI-H522 lung): 24 µM
TGI (OVCAR-3 ovarian): 24.7 µM
TGI (OVCAR-4 ovarian): 63.2 µM
TGI (OVCAR-5 ovarian): > 100 µM
TGI (OVCAR-8 ovarian): 61.6 µM
TGI (RPMI-8226 leukemia): 88.1 µM
TGI (RXF 393 renal): > 100 µM
TGI (SF-268 CNS): 45.7 µM
TGI (SF-295 CNS): > 100 µM
TGI (SF-539 CNS): 19.4 µM
TGI (SK-MEL-2 melanoma): 13.6 µM
TGI (SK-MEL-28 melanoma): > 100 µM
TGI (SK-MEL-5 melanoma): > 100 µM
TGI (SK-OV-3 ovarian): 46.3 µM
TGI (SN12C renal): > 100 µM
TGI (SNB-19 CNS): 68.8 µM
TGI (SNB-75 CNS): 64.2 µM
TGI (SNB-78 CNS): 21.6 µM
TGI (SR leukemia): 55.7 µM
TGI (SW-620 colon): 29.1 µM
TGI (TK-10 renal): > 100 µM
TGI (U251 CNS): 23.8 µM
TGI (UACC-257 melanoma): > 100 µM
TGI (UACC-62 melanoma): 38.4 µM
TGI (UO-31 renal): > 100 µM

CCc1nc2ccccc2c(=O)n1/N=C(\N=Nc1ccc(Cl)cc1)c1ccccc1
TGI (786-0 renal): 59.2 µM
TGI (A498 renal): > 100 µM
TGI (A549 NSCLC): 98.7 µM
TGI (ACHN renal): > 92.4 µM
TGI (CAKI-1 renal): 46.4 µM
TGI (CCRF-CEM leukemia): > 100 µM
TGI (COLO 205 colon): > 100 µM
TGI (DLD-1 colon): > 100 µM
TGI (DMS 114 small cell lung): 59.3 µM
TGI (DMS 273 small cell lung): 50 µM
TGI (EKVX NSCLC): 75.2 µM
TGI (HCC-2998 colon): 95.6 µM
TGI (HCT-116 colon): 64.5 µM
TGI (HCT-15 colon): > 100 µM
TGI (HL-60(TB) leukemia): > 100 µM
TGI (HOP-18 NSCLC): 71 µM
TGI (HOP-62 NSCLC): 69.4 µM
TGI (HOP-92 NSCLC): 46.2 µM
TGI (HT29 colon): 36.9 µM
TGI (IGROV1 ovarian): > 100 µM
TGI (KM12 colon): 34.7 µM
TGI (KM20L2 colon): 27.7 µM
TGI (LOX IMVI melanoma): 40.5 µM
TGI (LXFL 529 NSCLC): 50.8 µM
TGI (M14 melanoma): > 100 µM
TGI (M19-MEL melanoma): > 100 µM
TGI (MALME-3M melanoma): 90 µM
TGI (MOLT-4 leukemia): > 100 µM
TGI (NCI-H226 lung): 63.4 µM
TGI (NCI-H23 lung): > 100 µM
TGI (NCI-H460 lung): > 100 µM
TGI (NCI-H522 lung): > 69.3 µM
TGI (OVCAR-3 ovarian): 57.1 µM
TGI (OVCAR-4 ovarian): 75.6 µM
TGI (OVCAR-5 ovarian): > 100 µM
TGI (OVCAR-8 ovarian): > 100 µM
TGI (RPMI-8226 leukemia): > 100 µM
TGI (RXF 393 renal): > 75.8 µM
TGI (SF-268 CNS): 95.3 µM
TGI (SF-295 CNS): 53.6 µM
TGI (SF-539 CNS): 51.8 µM
TGI (SK-MEL-2 melanoma): 82.5 µM
TGI (SK-MEL-28 melanoma): > 100 µM
TGI (SK-MEL-5 melanoma): 44.6 µM
TGI (SK-OV-3 ovarian): 62 µM
TGI (SN12C renal): > 100 µM
TGI (SNB-19 CNS): 82.6 µM
TGI (SNB-75 CNS): 40.1 µM
TGI (SNB-78 CNS): 71.1 µM
TGI (SW-620 colon): > 100 µM
TGI (TK-10 renal): 78.3 µM
TGI (U251 CNS): > 87.8 µM
TGI (UACC-257 melanoma): 59.6 µM
TGI (UACC-62 melanoma): > 100 µM
TGI (UO-31 renal): 76.8 µM

O=c1c(O)cc2c(O)oc3c(=O)c(O)c(O)c4c(O)oc1c2c43
TGI (786-0 renal): > 100 µM
TGI (A498 renal): > 100 µM
TGI (A549 NSCLC): > 100 µM
TGI (ACHN renal): > 100 µM
TGI (CAKI-1 renal): > 100 µM
TGI (CCRF-CEM leukemia): > 100 µM
TGI (COLO 205 colon): > 100 µM
TGI (DLD-1 colon): > 100 µM
TGI (DMS 114 small cell lung): 67.7 µM
TGI (DMS 273 small cell lung): > 100 µM
TGI (EKVX NSCLC): > 100 µM
TGI (HCC-2998 colon): > 100 µM
TGI (HCT-116 colon): > 100 µM
TGI (HCT-15 colon): > 100 µM
TGI (HL-60(TB) leukemia): > 100 µM
TGI (HOP-18 NSCLC): > 100 µM
TGI (HOP-62 NSCLC): > 100 µM
TGI (HOP-92 NSCLC): > 100 µM
TGI (HT29 colon): > 100 µM
TGI (IGROV1 ovarian): > 100 µM
TGI (K-562 leukemia): 57.9 µM
TGI (KM12 colon): > 100 µM
TGI (KM20L2 colon): > 100 µM
TGI (LOX IMVI melanoma): 34.1 µM
TGI (LXFL 529 NSCLC): > 100 µM
TGI (M14 melanoma): > 100 µM
TGI (M19-MEL melanoma): 25 µM
TGI (MALME-3M melanoma): > 100 µM
TGI (MOLT-4 leukemia): 72.2 µM
TGI (NCI-H226 lung): > 100 µM
TGI (NCI-H23 lung): > 100 µM
TGI (NCI-H460 lung): > 100 µM
TGI (NCI-H522 lung): > 100 µM
TGI (OVCAR-3 ovarian): > 100 µM
TGI (OVCAR-4 ovarian): 33.3 µM
TGI (OVCAR-5 ovarian): > 100 µM
TGI (OVCAR-8 ovarian): > 100 µM
TGI (RPMI-8226 leukemia): > 100 µM
TGI (RXF 393 renal): > 100 µM
TGI (SF-268 CNS): > 100 µM
TGI (SF-295 CNS): 50.4 µM
TGI (SF-539 CNS): > 100 µM
TGI (SK-MEL-2 melanoma): > 100 µM
TGI (SK-MEL-28 melanoma): > 100 µM
TGI (SK-MEL-5 melanoma): > 100 µM
TGI (SK-OV-3 ovarian): > 100 µM
TGI (SN12C renal): 36.5 µM
TGI (SNB-19 CNS): > 100 µM
TGI (SNB-75 CNS): > 100 µM
TGI (SNB-78 CNS): > 100 µM
TGI (SR leukemia): > 100 µM
TGI (SW-620 colon): > 100 µM
TGI (TK-10 renal): > 100 µM
TGI (U251 CNS): 34.3 µM
TGI (UACC-257 melanoma): > 100 µM
TGI (UACC-62 melanoma): > 100 µM
TGI (UO-31 renal): > 100 µM

Source: PubChem BioAssay (NCI)
